{"source": "patent EP4772500A1", "about": "“NOVEL ISOXAZOLE COMPOUND AS TM4SF5-SPECIFIC INHIBITOR AND USE THEREOF” (Seoul National University R&DB Foundation, priority 2023, dated 2025)", "key": {"[1]": {"test_system": "TM4SF5-expressing cells (SNU449T7)", "assay": "2D cell growth/proliferation", "assay_type": "cell-based, human", "conditions": "2D environment, drug every 24 hours (FIG. 3a)", "method": "The drugs treated were the positive control drug TSAHC or the ST-1-025 isoxazole compound at the given concentrations. From the time of starting culture (0 day), (FIG. 3a) in the case of 2D culture, the number of cells was measured after treating with the drug every 24 hours, or (FIG. 3b) in a 3D environment, the proliferation of cells (spheres) was observed and photographed with an optical microscope on the 5th and 7th days after a single drug treatment at the start of culture."}, "Human Jurkat T cells": {"test_system": "Human Jurkat T cells", "assay": "T cell activation (Granzyme B, PD-1) after PMA/INO", "assay_type": "cell-based", "conditions": "for activation by PMA/INO (Granzyme B production): PMA (10 ng/ml) and INO (1 µg/ml), 24 hours (FIG. 18a)", "method": "(a) Human Jurkat T cells were activated by treating with PMA (10 ng/ml) and INO (1 µg/ml) for 24 hours. A non-treated state was also included as a control. […] (b) Human Jurkat T cells were either not treated or treated with PMA (25 ng/ml) and INO (1 µg/ml) for 24 hours, and IL-21 was treated at a level of 50 ng/ml for the last 6 hours. Simultaneously with the PMA/INO treatment, ST-5-002 was treated or not treated at 2.5 µM. At this time, the expression levels of Granzyme B and PD-1, or the phosphorylation of Ser473 of AKTs and Thr202/Tyr204 of ERKs, were enhanced by PMA/INO."}, "TM4SF5": {"target": "T1, TM4SF5 (Homo sapiens, UniProt O14894)", "T1 sequence (O14894 1-197)": "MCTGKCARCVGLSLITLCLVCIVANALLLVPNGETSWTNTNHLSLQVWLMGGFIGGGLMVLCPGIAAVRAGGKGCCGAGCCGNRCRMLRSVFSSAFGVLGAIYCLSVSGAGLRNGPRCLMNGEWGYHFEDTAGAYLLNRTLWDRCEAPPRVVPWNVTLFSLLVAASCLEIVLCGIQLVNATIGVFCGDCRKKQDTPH", "assay": "TM4SF5 expression-dependent animal models (summary statement)", "assay_type": "in vivo", "parameters": "expressed in transfected cells; captured on streptavidin agarose", "from_the_text": "In addition, the isoxazole compounds are capable of reversing both (i) an increase in PD-L1 expression and stabilization through direct binding mediated by TM4SF5 and (ii) induction of PD-1 expression in T cells, which suppresses T-cell activation and cancer cell killing functions."}, "SNU449T7 cells": {"test_system": "SNU449T7 cells", "assay": "Subcutaneous xenograft liver cancer model in severely combined immunodeficient animals", "assay_type": "in vivo, NOD-SCID mice", "method": "Cells expressing TM4SF5 (SNU449T7) were cultured in a cell incubator at 37°C and 5% CO2. The next day, the cells were detached by treating with a T/E (Trypsin/EDTA) solution and centrifuged at 150 × g for 3 minutes to obtain a cell pellet. Thereafter, the supernatant was removed, and the pellet was prepared by resuspension in phosphate buffered saline (PBS). For the generation of cancer tissue, 5 × 10^5 cells/100 µl were injected once subcutaneously into the right thigh area of 6-week-old male NOD/SCID mice. At this time, the animals were anesthetized by inhalation with […] isoflurane and injected. From the 15th day after the cell injection, drug ST-5-002 was intraperitoneally injected at 2.5 mg/kg of body weight at 100 µl per dose for a total of 8 times every 3 days. The body weight and tumor volume of the animals were measured every 3 days from the 12th day after the cell injection. The tumor volume was calculated as (length × width × width)/2 (mm^3) by measuring the length and width of the tumor. On the 36th day after the cell (SNU449T7) injection, the animals were sacrificed, and cancer tissues were obtained and analyzed.\nSNU449T7 cells were subcutaneously injected into the thighs of 6-week-old male NOD/CB17-Prkdc^scid/J mice (NOD-SCID mice lacking or having non-functional immune cells such as T cells, B cells, and NK cells, n=10), at a dose of 5X10^5 cells. One week later, vehicle or the drug ST-5-002 was intravenously injected at a concentration of 2.5 mg/kg of body weight (mpk) twice a week. Three days after the 8th drug injection, the animals were sacrificed, cancer tissues were recovered and photographed, and immunohistochemistry, Western blot, and qRT-PCR analyses were performed."}}, "data": [{"smiles": "Cc1ccc(S(=O)(=O)Nc2ccc(C(=O)/C=C/c3ccc(O)cc3)cc2)cc1", "note": "[TSAHC, 4'-(p-toluenesulfonylamino)-4-hydroxychalcone, reference compound]", "values": [{"measurement": "growth or proliferation", "setting": "[1]", "value": "decreased"}]}, {"smiles": "CC(=O)Nc1ccc(-c2cc(-c3ccc(O)cc3)no2)cc1", "note": "[ST-5-001, N-(4-(3-(4-hydroxyphenyl)isoxazole-5-yl)phenyl)acetamide]", "values": [{"measurement": "activation by PMA/INO (Granzyme B production)", "setting": "Human Jurkat T cells", "value": "further increased"}, {"measurement": "doses at which effects were exhibited", "setting": "TM4SF5", "value": "≤ 2.5", "unit": "mpk"}]}, {"smiles": "COc1ccc(-c2cc(-c3ccc(N)cc3)no2)cc1", "note": "[ST-1-025, 4-(5-(4-methoxyphenyl)isoxazole-3-yl)aniline]", "values": [{"measurement": "growth or proliferation", "setting": "[1]", "value": "decreased"}]}, {"smiles": "Cc1ccc(C(=O)Nc2ccc(-c3cc(-c4ccc(O)cc4)no3)cc2)cc1", "note": "[ST-5-002, N-(4-(3-(4-hydroxyphenyl)isoxazole-5-yl)phenyl)-4-methylbenzamide]", "values": [{"measurement": "activation by PMA/INO (Granzyme B production)", "setting": "Human Jurkat T cells", "value": "further increased"}, {"measurement": "expression of Granzyme B and PD-1", "setting": "Human Jurkat T cells; PMA (25 ng/ml) and INO (1 µg/ml), 2.5 µM alone (FIG. 18b)", "value": "further increased"}, {"measurement": "level of Granzyme B", "setting": "Human Jurkat T cells; PMA/INO, 2.5 µM together with IL-21 50 ng/ml (FIG. 18b)", "value": "even higher"}, {"measurement": "inhibitory efficacy in cancer formation in terms of tumor volume and weight", "setting": "SNU449T7 cells; 2.5 mg/kg of body weight (mpk), 8 injections (FIG. 24c)", "value": "statistically significant inhibitory efficacy"}, {"measurement": "tumor size", "setting": "SNU449T7 cells; 2.5 mg/kg of body weight (mpk), 8 injections, vs vehicle (FIG. 24b)", "value": "decreased"}, {"measurement": "SLAMF7 staining in the small cancer areas", "setting": "SNU449T7 cells; immunostaining (FIG. 24d)", "value": "much more distinctly strong staining level"}, {"measurement": "degree of PD-L1 staining", "setting": "SNU449T7 cells; immunostaining (FIG. 24d)", "value": "decreased"}, {"measurement": "expression of TM4SF5", "setting": "SNU449T7 cells; immunostaining (FIG. 24d)", "value": "did not change significantly"}, {"measurement": "expressions of AFP and laminin γ2", "setting": "SNU449T7 cells; immunostaining (FIG. 24d)", "value": "significantly reduced"}, {"measurement": "staining level of F4/80 and expressions of CCL5 and CCL20", "setting": "SNU449T7 cells; immunostaining, vs control group (FIG. 24d)", "value": "lower"}, {"measurement": "doses at which effects were exhibited", "setting": "TM4SF5", "value": "≤ 2.5", "unit": "mpk"}]}]}
